Read-outs that look alike come from different tables or passages of the source.
Experiments:
Rn myosin-9b (Myo9b) [1] = target: T1, Rn myosin-9b (Myo9b) (Rattus norvegicus, UniProt Q63358); test: NADH-coupled basal and actin-activated ATPase assay; assay type: biochemical
T1 construct: motor domain construct

Dd myosin-2 (DdMyo2) [2] = target: T2, Dd myosin-2 (DdMyo2) (Dictyostelium discoideum, UniProt P08799); test: biochemical; design: binding affinity of compound to purified myosin (technique not given in the excerpts)
T2 construct: gene mhcA; motor domain
T2 sequence (P08799 2-762): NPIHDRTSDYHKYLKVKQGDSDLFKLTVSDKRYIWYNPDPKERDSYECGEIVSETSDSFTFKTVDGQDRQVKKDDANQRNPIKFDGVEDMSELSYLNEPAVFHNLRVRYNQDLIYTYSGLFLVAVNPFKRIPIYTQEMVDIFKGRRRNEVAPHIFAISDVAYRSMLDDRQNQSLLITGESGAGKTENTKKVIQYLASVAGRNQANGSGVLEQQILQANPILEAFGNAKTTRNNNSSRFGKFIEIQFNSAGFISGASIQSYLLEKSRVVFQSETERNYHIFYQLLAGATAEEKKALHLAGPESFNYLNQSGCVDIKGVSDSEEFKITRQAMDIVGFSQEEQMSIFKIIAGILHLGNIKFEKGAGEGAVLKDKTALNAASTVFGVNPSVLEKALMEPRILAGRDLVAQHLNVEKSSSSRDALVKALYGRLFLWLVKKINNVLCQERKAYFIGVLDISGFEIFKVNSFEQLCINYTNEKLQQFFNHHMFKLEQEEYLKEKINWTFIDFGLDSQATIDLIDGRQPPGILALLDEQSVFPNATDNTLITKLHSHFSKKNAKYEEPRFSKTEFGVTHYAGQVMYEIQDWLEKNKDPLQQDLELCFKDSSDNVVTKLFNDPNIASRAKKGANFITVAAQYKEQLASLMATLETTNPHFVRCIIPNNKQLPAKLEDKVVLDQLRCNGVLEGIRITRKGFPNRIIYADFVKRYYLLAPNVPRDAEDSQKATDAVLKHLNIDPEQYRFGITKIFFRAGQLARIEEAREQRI
Source text: (§1) Structural elements responsible for communicating conformational changes along the myosin ATPase cycle, such as the relay helix, the strut loop, and the W-helix, which form a central hub in the myosin motor domain for effective force production, flank the inhibitor binding site (Fig. 1K). The site buries a total protein surface area of 302.9 Å^2. This pocket is not visible in ligand-free DdMyo2 pre-power stroke structures and only formed by rearrangements of the side chains of residues S266 (β7-loop), E467 (relay helix), and K587 (strut) upon binding of the carbazole (Supplementary Fig. 1A). The aromatic carbazole moiety interacts primarily through hydrophobic contacts with F466 (relay helix) and V630 (W-helix), as well as cation-π interactions with K423 (O-helix) (Supplementary Fig. 1B). Four hydrogen bonds stabilize the inhibitor in its binding position: S465 (relay helix) and K587 (strut loop) interact with the hydroxy group of the ligand, and S465 (relay helix) and the main chain of E487 (relay helix) bind to the nitrogen of the carbazole framework. […] Rabbit fast skeletal muscle heavy meromyosin (skHMM) was prepared as described in ref. [129]. All other myosins were purified from native tissue or recombinant from the following organismal sources: D. discoideum (Dd), O. coniculus (Oc), S. scrofa (Ss), R. norvegicus (Rn), C. elegans (Ce), H. sapiens (Hs). Motor domain constructs of myosin-2, myosin-5a–5b, Ce myosin-9/Rn myosin-9b, were prepared as described previously in refs. [126],[130]–[135]. Hs nonmuscle myosin-2A (NM2a) was purified from SF9 cells using the baculovirus expression system as described in ref. [130] (for more information see Supplementary Table 5). F-actin was prepared according to the protocol by Lehrer and Kerwar[136].

DdMyo5b = target: T3, DdMyo5b (Dictyostelium discoideum, UniProt P54697); test: biochemical; design: binding affinity of compound to purified myosin (technique not given in the excerpts)
T3 construct: gene myoJ; motor domain
T3 sequence (P54697 whole entry, the tested form may be a part): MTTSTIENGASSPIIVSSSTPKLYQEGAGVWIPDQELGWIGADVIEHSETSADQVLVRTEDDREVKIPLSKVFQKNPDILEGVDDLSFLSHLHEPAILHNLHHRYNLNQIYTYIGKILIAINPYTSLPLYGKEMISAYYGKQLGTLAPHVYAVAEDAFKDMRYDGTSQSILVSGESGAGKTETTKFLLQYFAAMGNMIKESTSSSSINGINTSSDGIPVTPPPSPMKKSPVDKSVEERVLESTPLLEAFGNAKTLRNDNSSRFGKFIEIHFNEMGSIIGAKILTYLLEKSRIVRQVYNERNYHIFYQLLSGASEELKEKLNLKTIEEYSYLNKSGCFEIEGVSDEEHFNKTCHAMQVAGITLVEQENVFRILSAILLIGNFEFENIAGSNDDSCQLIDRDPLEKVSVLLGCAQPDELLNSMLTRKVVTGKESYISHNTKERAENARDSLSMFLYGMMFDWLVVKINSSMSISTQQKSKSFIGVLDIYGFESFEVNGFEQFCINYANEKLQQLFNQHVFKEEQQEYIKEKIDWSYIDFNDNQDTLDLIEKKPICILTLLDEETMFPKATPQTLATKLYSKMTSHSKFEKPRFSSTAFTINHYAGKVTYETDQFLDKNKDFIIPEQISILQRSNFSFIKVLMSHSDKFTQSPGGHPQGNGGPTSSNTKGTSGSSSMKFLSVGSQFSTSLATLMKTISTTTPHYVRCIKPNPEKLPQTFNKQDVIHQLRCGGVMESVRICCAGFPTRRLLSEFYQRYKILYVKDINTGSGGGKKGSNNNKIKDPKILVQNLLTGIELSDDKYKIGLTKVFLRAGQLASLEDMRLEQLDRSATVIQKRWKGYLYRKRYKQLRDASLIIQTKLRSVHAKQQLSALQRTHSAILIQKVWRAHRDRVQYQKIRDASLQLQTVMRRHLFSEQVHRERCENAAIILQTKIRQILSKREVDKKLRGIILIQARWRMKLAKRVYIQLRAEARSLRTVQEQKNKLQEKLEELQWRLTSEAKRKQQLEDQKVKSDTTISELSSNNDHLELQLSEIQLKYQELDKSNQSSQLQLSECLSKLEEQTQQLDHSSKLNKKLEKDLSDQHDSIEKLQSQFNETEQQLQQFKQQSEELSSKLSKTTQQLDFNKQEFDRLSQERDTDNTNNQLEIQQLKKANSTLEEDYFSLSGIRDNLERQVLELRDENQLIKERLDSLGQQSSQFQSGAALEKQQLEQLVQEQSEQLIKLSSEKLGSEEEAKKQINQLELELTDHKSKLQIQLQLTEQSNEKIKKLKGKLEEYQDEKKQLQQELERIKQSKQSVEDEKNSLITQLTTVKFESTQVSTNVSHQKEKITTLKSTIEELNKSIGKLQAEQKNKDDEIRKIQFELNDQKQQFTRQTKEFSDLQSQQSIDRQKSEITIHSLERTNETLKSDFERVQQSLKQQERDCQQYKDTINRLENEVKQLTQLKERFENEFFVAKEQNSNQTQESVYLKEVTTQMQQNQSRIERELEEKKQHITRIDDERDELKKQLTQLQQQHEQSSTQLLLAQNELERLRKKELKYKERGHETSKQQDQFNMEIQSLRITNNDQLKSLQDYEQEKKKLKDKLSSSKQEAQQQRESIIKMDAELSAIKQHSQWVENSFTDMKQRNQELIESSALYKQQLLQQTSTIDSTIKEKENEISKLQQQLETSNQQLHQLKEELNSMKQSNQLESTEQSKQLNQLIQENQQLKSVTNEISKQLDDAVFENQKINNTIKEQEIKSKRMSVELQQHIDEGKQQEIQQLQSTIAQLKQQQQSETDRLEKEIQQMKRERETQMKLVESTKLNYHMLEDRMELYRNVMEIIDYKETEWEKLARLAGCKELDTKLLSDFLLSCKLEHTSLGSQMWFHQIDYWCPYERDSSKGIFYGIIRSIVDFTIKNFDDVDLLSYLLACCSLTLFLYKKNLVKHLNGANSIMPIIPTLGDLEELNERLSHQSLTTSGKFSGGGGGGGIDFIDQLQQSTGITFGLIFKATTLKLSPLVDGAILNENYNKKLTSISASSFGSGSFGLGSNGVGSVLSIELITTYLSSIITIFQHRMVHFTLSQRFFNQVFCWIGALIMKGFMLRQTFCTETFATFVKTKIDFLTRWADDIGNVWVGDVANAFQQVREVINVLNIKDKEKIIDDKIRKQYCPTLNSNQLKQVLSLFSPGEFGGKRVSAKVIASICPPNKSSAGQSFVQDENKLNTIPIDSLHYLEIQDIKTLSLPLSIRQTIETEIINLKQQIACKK
Source text: as §1

Ce myosin-9 = target: T4, Ce myosin-9 (Caenorhabditis elegans, UniProt F0IWT2); test: NADH-coupled basal and actin-activated ATPase assay; in vitro actin motility; assay type: biochemical
T4 construct: gene hum-7; motor domain construct
T4 sequence (F0IWT2 entry or part of it): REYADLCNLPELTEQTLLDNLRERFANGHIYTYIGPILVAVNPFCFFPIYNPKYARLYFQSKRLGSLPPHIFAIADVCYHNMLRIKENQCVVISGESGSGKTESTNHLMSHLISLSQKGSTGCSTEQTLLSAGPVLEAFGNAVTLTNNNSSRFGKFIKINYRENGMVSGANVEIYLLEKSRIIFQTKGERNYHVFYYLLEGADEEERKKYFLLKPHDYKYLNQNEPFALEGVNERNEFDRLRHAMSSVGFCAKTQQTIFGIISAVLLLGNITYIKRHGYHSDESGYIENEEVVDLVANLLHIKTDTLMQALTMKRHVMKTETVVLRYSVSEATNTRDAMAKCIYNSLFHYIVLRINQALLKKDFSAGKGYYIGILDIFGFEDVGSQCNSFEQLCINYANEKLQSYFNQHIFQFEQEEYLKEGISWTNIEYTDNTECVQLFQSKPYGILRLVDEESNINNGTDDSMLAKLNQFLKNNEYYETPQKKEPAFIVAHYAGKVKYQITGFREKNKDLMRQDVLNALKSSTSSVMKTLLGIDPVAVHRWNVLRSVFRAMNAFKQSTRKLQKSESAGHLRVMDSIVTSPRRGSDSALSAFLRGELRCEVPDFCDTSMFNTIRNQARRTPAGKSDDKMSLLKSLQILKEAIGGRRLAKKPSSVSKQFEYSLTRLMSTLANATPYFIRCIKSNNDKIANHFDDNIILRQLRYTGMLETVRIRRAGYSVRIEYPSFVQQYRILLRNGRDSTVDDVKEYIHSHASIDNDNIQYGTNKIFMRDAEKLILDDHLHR
Source text: NADH-coupled basal and actin-activated ATPase assay; in vitro actin motility on Ce myosin-9 | Inhibitory effect of adhibin on Cemyosin-9 and Rnmyosin-9b basal and actin-activated ATPase activities.

Dd myosin-2 (DdMyo2) [3] = target: T2, Dd myosin-2 (DdMyo2); test: biochemical; design: inhibition of myosin ATPase activity
Source text: (§2) We set out to identify a myosin class-IX specific inhibitor by screening an in-house compound library comprising halogenated pseudilins and carbazole derivatives, developed to target the ATPase activity of myosins[47],[48]. […] Low micromolar concentrations inhibited Myo9 motor function substantially, reducing sliding velocity and motile fraction of actin filaments in a reproducible and reversible manner (Fig. 1G, H). Importantly, the motor properties of other tested myosins remained unaffected (Fig. 1G). Rabbit fast skeletal muscle heavy meromyosin (skHMM) was prepared as described in ref. [129]. All other myosins were purified from native tissue or recombinant from the following organismal sources: D. discoideum (Dd), O. coniculus (Oc), S. scrofa (Ss), R. norvegicus (Rn), C. elegans (Ce), H. sapiens (Hs). Motor domain constructs of myosin-2, myosin-5a–5b, Ce myosin-9/Rn myosin-9b, were prepared as described previously in refs. [126],[130]–[135]. Hs nonmuscle myosin-2A (NM2a) was purified from SF9 cells using the baculovirus expression system as described in ref. [130] (for more information see Supplementary Table 5). F-actin was prepared according to the protocol by Lehrer and Kerwar[136].

Rn myosin-9b (Myo9b) [4] = target: T1, Rn myosin-9b (Myo9b); test: biochemical; design: inhibition of myosin ATPase activity
Source text: as §2

T1 sequence (Q63358 2-954): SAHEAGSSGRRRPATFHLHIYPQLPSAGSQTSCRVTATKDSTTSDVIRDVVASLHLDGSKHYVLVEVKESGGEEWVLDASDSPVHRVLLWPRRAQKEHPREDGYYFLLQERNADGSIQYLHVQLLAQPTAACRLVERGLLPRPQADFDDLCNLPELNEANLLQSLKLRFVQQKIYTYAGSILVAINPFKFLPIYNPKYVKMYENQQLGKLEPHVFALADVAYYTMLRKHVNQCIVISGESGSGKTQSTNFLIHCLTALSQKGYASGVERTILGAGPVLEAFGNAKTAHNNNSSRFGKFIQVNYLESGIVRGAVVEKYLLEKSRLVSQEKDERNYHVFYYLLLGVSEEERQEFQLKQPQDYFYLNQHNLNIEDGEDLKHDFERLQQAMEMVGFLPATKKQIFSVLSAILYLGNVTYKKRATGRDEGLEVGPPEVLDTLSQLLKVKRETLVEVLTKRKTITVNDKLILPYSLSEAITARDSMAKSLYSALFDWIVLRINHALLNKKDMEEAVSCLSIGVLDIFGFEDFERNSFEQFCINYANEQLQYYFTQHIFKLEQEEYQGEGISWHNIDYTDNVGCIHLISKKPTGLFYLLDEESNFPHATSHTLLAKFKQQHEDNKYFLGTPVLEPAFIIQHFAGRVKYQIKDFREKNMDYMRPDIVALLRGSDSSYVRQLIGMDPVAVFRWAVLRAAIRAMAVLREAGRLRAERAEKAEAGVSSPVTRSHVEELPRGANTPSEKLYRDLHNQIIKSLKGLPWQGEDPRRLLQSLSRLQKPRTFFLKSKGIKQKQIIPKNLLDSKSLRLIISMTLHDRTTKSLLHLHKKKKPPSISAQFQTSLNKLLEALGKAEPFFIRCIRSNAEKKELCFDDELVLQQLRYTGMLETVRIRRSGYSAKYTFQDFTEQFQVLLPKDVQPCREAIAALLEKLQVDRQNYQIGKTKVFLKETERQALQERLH

| Structure (SMILES) | IC50 (Rn myosin-9b (Myo9b) [1]) [µM] | Kd (Dd myosin-2 (DdMyo2) [2]; read-out: KD) [µM] | Kd (DdMyo5b; read-out: KD) [µM] | IC50 (Ce myosin-9) [µM] | IC50 (Dd myosin-2 (DdMyo2) [3]; read-out: IC50) [µM] | Kd (Dd myosin-2 (DdMyo2) [2]) [µM] | Kd (DdMyo5b) [µM] | IC50 (Dd myosin-2 (DdMyo2) [3]) [µM] | IC50 (Rn myosin-9b (Myo9b) [4]) [µM] |
| --- | --- | --- | --- | --- | --- | --- | --- | --- | --- |
| OCc1cc(Br)cc2c1[nH]c1ccc(Br)cc12 [compound 12, 3,6-dibromo-1-(hydroxymethyl)carbazole] | 2.5 ± 0.2 | 14.9 ± 3.2 | 1.5 ± 0.5 | 2.6 ± 0.2 | 37.7 ± 9.4 | – | – | – | – |
| Cc1ccc2[nH]c3c(O)cc(Br)c(Br)c3c2c1 [compound 5, 3,4-dibromo-6-methyl-9H-carbazol-1-ol] | – | – | – | – | – | 7.3 ± 4.1 | 33.2 ± 5.2 | 22.6 ± 7.5 | 2 ± 0.3 |
